7 compounds from patent publication US9913808B2, “Injectable pharmaceutical compositions for the treatment of joints” (priority 2010, dated 2018) can be followed below.

The test system of the series is synovial membrane of knee joints of rabbits. The series is described as follows: Intra-articular injection into rabbit knee joints, histological scoring of the synovial membrane after 24 hours. It is filed as in vivo. The following applies: for Prevention of irritation on intra-articular injection (in words): glycerol and glucitol in comparable circumstances, data not shown. As to the method:
After 24 hours the rabbits were sacrificed, the joints were removed and histological studies of the synnovial membrane were carried out. Each of the following histological findings was scored 0 to 3. a. Synovial lining hyperplasia b. Presence of Fibrin c. Inflammatory infiltration d. Necrosis […]

Setting [1] is: rabbit knee, intra-articular injection of the solution itself, sacrifice 24 h after injection, sulphate.
The mark [2] stands for this setting: rabbit knee, intra-articular injection of the solution itself, sacrifice 24 h after injection.

For `CCCCCCCCCCCCOS(=O)(=O)[O-].[Na+]` [0.2% SLS in saline, sodium lauryl sulphate], the “Histological score of synovial membrane (synovial lining hyperplasia, fibrin, inflammatory infiltration, necrosis, each scored 0 to 3), Mean” value (“Histological score of synovial membrane” for short) under setting [1] amounted to 1.4.

With `CCCCCCCCCCCCOS(=O)(=O)[O-].[Na+]` [0.5% SLS in saline (positive control), sodium lauryl sulphate], the “Histological score of synovial membrane” value by setting is: (rabbit knee, intra-articular injection of the solution itself, sacrifice 24 h after injection, listed as 0.5% SLS in saline, sulphate) 5.8; under setting [1], 5.8.

In the case of `OC[C@@H](O)[C@H](O)[C@@H](O)CO` [4.5% Xylitol in distilled water, Xylitol], under setting [2], the “Histological score of synovial membrane” value is given as 1.4.

Regarding `OC[C@@H](O)[C@@H](O)[C@H](O)[C@H](O)CO` [5.4% Mannitol in distilled water, Mannitol], under setting [2], the “Histological score of synovial membrane” value was 3.4. Under “rabbit knee”, the “Prevention of irritation on intra-articular injection (in words)” value (from here on “Prevention of irritation”) is given as “does not prevent irritation”.

Turning to `OC[C@@H](O)[C@@H](O)[C@H](O)[C@@H](O)CO` [glucitol], the “Prevention of irritation” value (rabbit knee) is given as “lack of prevention of irritation”.

`OCC(O)CO` [glycerol]: for the setting “rabbit knee”, the “Prevention of irritation” value is given as “lack of prevention of irritation”.

Consider “sodium Hyaluronate [1% sodium Hyaluronate in saline]”, for which the “Histological score of synovial membrane” value (rabbit, in vivo) worked out at 1.0.
